Experiments:
PTPN2 (i.e., TC-PTP) = target: T1, PTPN2 (i.e., TC-PTP) (Homo sapiens, UniProt P17706); assay: Phosphatase activity assay (DiFMUP substrate), PTPN2; type: biochemical; conditions: compounds binned ≤1 uM or >1 uM
T1 sequence (P17706 1-415): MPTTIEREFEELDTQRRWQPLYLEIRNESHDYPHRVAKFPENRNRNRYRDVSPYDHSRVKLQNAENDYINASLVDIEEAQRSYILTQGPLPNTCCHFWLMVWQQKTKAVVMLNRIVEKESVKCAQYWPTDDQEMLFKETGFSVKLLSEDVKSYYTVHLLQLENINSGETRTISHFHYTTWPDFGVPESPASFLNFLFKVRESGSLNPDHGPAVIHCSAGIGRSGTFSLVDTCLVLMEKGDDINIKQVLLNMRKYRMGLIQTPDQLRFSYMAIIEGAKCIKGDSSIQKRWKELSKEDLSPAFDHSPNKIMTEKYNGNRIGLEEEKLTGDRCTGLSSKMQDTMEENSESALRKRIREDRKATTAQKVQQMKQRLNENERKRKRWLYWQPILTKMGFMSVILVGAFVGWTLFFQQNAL
Outline: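 Using a Km-level DiFMUP substrate and 0.025 ng/ul PTPN2, phosphatase activity is tracked by DiFMU emission at 450 nm over about 15–30 minutes. Initial rates at ten inhibitor concentrations give IC50 by four-parameter fitting.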

PTPN1 (i.e., PTP1B) = target: T2, PTPN1 (i.e., PTP1B) (Homo sapiens, UniProt P18031); assay: Phosphatase activity assay (DiFMUP substrate), PTP1B; type: biochemical; conditions: compounds binned ≤1 uM or >1 uM
T2 sequence (P18031 1-435): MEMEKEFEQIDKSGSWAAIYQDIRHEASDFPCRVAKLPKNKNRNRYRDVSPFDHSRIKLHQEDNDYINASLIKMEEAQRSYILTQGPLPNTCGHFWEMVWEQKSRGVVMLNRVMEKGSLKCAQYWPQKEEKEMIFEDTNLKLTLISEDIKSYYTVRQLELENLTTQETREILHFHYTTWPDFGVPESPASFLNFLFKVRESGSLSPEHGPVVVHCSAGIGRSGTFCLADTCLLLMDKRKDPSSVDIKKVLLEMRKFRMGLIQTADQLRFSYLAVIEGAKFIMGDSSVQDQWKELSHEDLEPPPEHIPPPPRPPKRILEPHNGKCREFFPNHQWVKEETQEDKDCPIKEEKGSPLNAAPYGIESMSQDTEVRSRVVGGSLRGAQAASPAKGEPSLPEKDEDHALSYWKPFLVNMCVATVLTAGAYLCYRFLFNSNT
Outline: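 RT, HEPES pH 7.5 buffer with DTT/Tween-20. 10-point inhibitor series premixed ~2 min with enzyme (PTPN2 0.025 ng/ul). Start with DiFMUP at enzyme Km (~45 μM for PTPN2). Read DiFMU ex360/em450 continuously 15–30 min; initial rate vs concentration, 4-parameter fit → IC50.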

SMILES	IC50 (PTPN2 (i.e., TC-PTP))	IC50 (PTPN1 (i.e., PTP1B))
N=C(N)N1CCC=C(c2ccc(O)c(N3CC(=O)NS3(=O)=O)c2F)C1 [Compound 499, 5-(3-(1,1-dioxido-4-oxo-1,2,5-thiadiazolidin-2-yl)-2-fluoro-4-hydroxyphenyl)-3,6-dihydropyridine-1(2H)-carboximidamide]	≤ 1 µM	≤ 1 µM
O=C1CN(c2c(O)ccc(-c3cn(C4CC4(F)F)[nH]c3=O)c2F)S(=O)(=O)N1 (stereo not shown) [Compound 500, 5-(3-(1-(2,2-difluorocyclopropyl)-3-oxo-2,3-dihydro-1H-pyrazol-4-yl)-2-fluoro-6-hydroxyphenyl)-1,2,5-thiadiazolidin-3-one 1,1-dioxide]	≤ 1 µM	≤ 1 µM
N=C(N)N1CC=C(c2ccc(O)c(N3CC(=O)NS3(=O)=O)c2F)C1 [Compound 502, 3-(3-(1,1-dioxido-4-oxo-1,2,5-thiadiazolidin-2-yl)-2-fluoro-4-hydroxyphenyl)-2,5-dihydro-1H-pyrrole-1-carboximidamide]	≤ 1 µM	≤ 1 µM
O=C1CN(c2c(O)ccc(-c3cnn(C(=O)N4CC(F)(F)C4)c3)c2F)S(=O)(=O)N1 [Compound 505, 5-(3-(1-(3,3-difluoroazetidine-1-carbonyl)-1H-pyrazol-4-yl)-2-fluoro-6-hydroxyphenyl)-1,2,5-thiadiazolidin-3-one 1,1-dioxide]	≤ 1 µM	≤ 1 µM
O=C1CN(c2c(O)ccc(-c3cn(C(F)F)nc3F)c2F)S(=O)(=O)N1 [Compound 509, 5-(3-(1-(difluoromethyl)-3-fluoro-1H-pyrazol-4-yl)-2-fluoro-6-hydroxyphenyl)-1,2,5-thiadiazolidin-3-one 1,1-dioxide]	≤ 1 µM	≤ 1 µM
O=C1CN(c2c(O)ccc(-c3cnn(CCC(F)F)c3)c2F)S(=O)(=O)N1 [Compound 510, 5-(3-(1-(3,3-difluoropropyl)-1H-pyrazol-4-yl)-2-fluoro-6-hydroxyphenyl)-1,2,5-thiadiazolidin-3-one 1,1-dioxide]	≤ 1 µM	≤ 1 µM
O=C1CN(c2c(O)ccc(C3=CCCNC3)c2F)S(=O)(=O)N1 [Compound 511, 5-(2-fluoro-6-hydroxy-3-(1,2,5,6-tetrahydropyridin-3-yl)phenyl)-1,2,5-thiadiazolidin-3-one 1,1-dioxide]	≤ 1 µM	≤ 1 µM
CCCC1C=C(c2ccc(O)c(N3CC(=O)NS3(=O)=O)c2F)CN1 (stereo not shown) [Compound 515, 5-(2-fluoro-6-hydroxy-3-(5-propyl-2,5-dihydro-1H-pyrrol-3-yl)phenyl)-1,2,5-thiadiazolidin-3-one 1,1-dioxide]	≤ 1 µM	≤ 1 µM
CC(F)(F)n1cc(-c2ccc(O)c(N3CC(=O)NS3(=O)=O)c2F)cn1 [Compound 516, 5-(3-(1-(1,1-difluoroethyl)-1H-pyrazol-4-yl)-2-fluoro-6-hydroxyphenyl)-1,2,5-thiadiazolidin-3-one 1,1-dioxide]	≤ 1 µM	≤ 1 µM
CC1(C)C=C(c2ccc(O)c(N3CC(=O)NS3(=O)=O)c2F)CN1 [Compound 519, 5-(3-(5,5-dimethyl-2,5-dihydro-1H-pyrrol-3-yl)-2-fluoro-6-hydroxyphenyl)-1,2,5-thiadiazolidin-3-one 1,1-dioxide]	> 1 µM	> 1 µM
O=C1CN(c2c(O)ccc(C3=CCN(CC(F)F)C3)c2F)S(=O)(=O)N1 [Compound 521, 5-(3-(1-(2,2-difluoroethyl)-2,5-dihydro-1H-pyrrol-3-yl)-2-fluoro-6-hydroxyphenyl)-1,2,5-thiadiazolidin-3-one 1,1-dioxide]	≤ 1 µM	≤ 1 µM

Continued, values first:

IC50 (PTPN2 (i.e., TC-PTP))	IC50 (PTPN1 (i.e., PTP1B))	SMILES
≤ 1 µM	≤ 1 µM	O=C1CN(c2c(O)ccc(C3=CCN(CC4CC4)C3)c2F)S(=O)(=O)N1 [Compound 496, 5-(3-(1-(cyclopropylmethyl)-2,5-dihydro-1H-pyrrol-3-yl)-2-fluoro-6-hydroxyphenyl)-1,2,5-thiadiazolidin-3-one 1,1-dioxide]
≤ 1 µM	≤ 1 µM	CCC1C=C(c2ccc(O)c(N3CC(=O)NS3(=O)=O)c2F)CNC1 (stereo not shown) [Compound 497, 5-(3-(5-ethyl-1,2,5,6-tetrahydropyridin-3-yl)-2-fluoro-6-hydroxyphenyl)-1,2,5-thiadiazolidin-3-one 1,1-dioxide]
≤ 1 µM	≤ 1 µM	CS(=O)(=O)n1nc(-c2ccc(O)c(N3CC(=O)NS3(=O)=O)c2F)cc1C1CC1 [Compound 498, 5-(3-(5-cyclopropyl-1-(methylsulfonyl)-1H-pyrazol-3-yl)-2-fluoro-6-hydroxyphenyl)-1,2,5-thiadiazolidin-3-one 1,1-dioxide]
≤ 1 µM	≤ 1 µM	O=C1CN(c2c(O)ccc(-c3cc(C4CC4CO)n[nH]3)c2F)S(=O)(=O)N1 (stereo not shown) [Compound 501, 5-(2-fluoro-6-hydroxy-3-(3-(2-(hydroxymethyl)cyclopropyl)-1H-pyrazol-5-yl)phenyl)-1,2,5-thiadiazolidin-3-one 1,1-dioxide]
≤ 1 µM	≤ 1 µM	Cn1cc(-c2ccc(O)c(N3CC(=O)NS3(=O)=O)c2F)nc1N [Compound 503, 5-(3-(2-amino-1-methyl-1H-imidazol-4-yl)-2-fluoro-6-hydroxyphenyl)-1,2,5-thiadiazolidin-3-one 1,1-dioxide]
≤ 1 µM	≤ 1 µM	C[C@H]1C=C(c2ccc(O)c(N3CC(=O)NS3(=O)=O)c2F)CN1 [Compound 504, (S)-5-(2-fluoro-6-hydroxy-3-(5-methyl-2,5-dihydro-1H-pyrrol-3-yl)phenyl)-1,2,5-thiadiazolidin-3-one 1,1-dioxide]
≤ 1 µM	≤ 1 µM	CCn1cc(-c2ccc(O)c(N3CC(=O)NS3(=O)=O)c2F)c(F)n1 [Compound 506, 5-(3-(1-ethyl-3-fluoro-1H-pyrazol-4-yl)-2-fluoro-6-hydroxyphenyl)-1,2,5-thiadiazolidin-3-one 1,1-dioxide]
≤ 1 µM	≤ 1 µM	O=C1CN(c2c(O)ccc(-c3c[nH]nc3F)c2F)S(=O)(=O)N1 [Compound 507, 5-(2-fluoro-3-(3-fluoro-1H-pyrazol-4-yl)-6-hydroxyphenyl)-1,2,5-thiadiazolidin-3-one 1,1-dioxide]
≤ 1 µM	≤ 1 µM	O=C1CN(c2c(O)ccc(-c3cc(C4CC4(F)F)n(CC(F)F)n3)c2F)S(=O)(=O)N1 (stereo not shown) [Compound 508, 5-(3-(5-(2,2-difluorocyclopropyl)-1-(2,2-difluoroethyl)-1H-pyrazol-3-yl)-2-fluoro-6-hydroxyphenyl)-1,2,5-thiadiazolidin-3-one 1,1-dioxide]
> 1 µM	> 1 µM	CC1NCC=C1c1ccc(O)c(N2CC(=O)NS2(=O)=O)c1F (stereo not shown) [Compound 512, 5-(2-fluoro-6-hydroxy-3-(2-methyl-2,5-dihydro-1H-pyrrol-3-yl)phenyl)-1,2,5-thiadiazolidin-3-one 1,1-dioxide]
≤ 1 µM	≤ 1 µM	O=C1CN(c2c(O)ccc(C3=CC(=O)OC3)c2F)S(=O)(=O)N1 [Compound 513, 5-(2-fluoro-6-hydroxy-3-(5-oxo-2,5-dihydrofuran-3-yl)phenyl)-1,2,5-thiadiazolidin-3-one 1,1-dioxide]
≤ 1 µM	≤ 1 µM	O=C1CN(c2c(O)ccc(-c3cnn(C(=O)NC4CC4)c3)c2F)S(=O)(=O)N1 [Compound 514, N-cyclopropyl-4-(3-(1,1-dioxido-4-oxo-1,2,5-thiadiazolidin-2-yl)-2-fluoro-4-hydroxyphenyl)-1H-pyrazole-1-carboxamide]
≤ 1 µM	≤ 1 µM	NC(=O)C1(c2cc(-c3ccc(O)c(N4CC(=O)NS4(=O)=O)c3F)[nH]n2)CC1 [Compound 517, 1-(5-(3-(1,1-dioxido-4-oxo-1,2,5-thiadiazolidin-2-yl)-2-fluoro-4-hydroxyphenyl)-1H-pyrazol-3-yl)cyclopropane-1-carboxamide]
≤ 1 µM	≤ 1 µM	O=C1CN(c2c(O)ccc(-c3cc(C4CC4)n(C(F)F)n3)c2F)S(=O)(=O)N1 [Compound 518, 5-(3-(5-cyclopropyl-1-(difluoromethyl)-1H-pyrazol-3-yl)-2-fluoro-6-hydroxyphenyl)-1,2,5-thiadiazolidin-3-one 1,1-dioxide]
≤ 1 µM	≤ 1 µM	NC(=O)Cc1cc(-c2ccc(O)c(N3CC(=O)NS3(=O)=O)c2F)[nH]n1 [Compound 520, 2-(5-(3-(1,1-dioxido-4-oxo-1,2,5-thiadiazolidin-2-yl)-2-fluoro-4-hydroxyphenyl)-1H-pyrazol-3-yl)acetamide]

Reference: patent US20240398828A1, “HETERO-ATOM CONTAINING COMPOUNDS AND USES THEREOF” (Kumquat Biosciences Inc., priority 2021, published 2024)
